From ChEMBL document CHEMBL5365467 (J Med Chem, 2023)

What was measured:
[1] = AUC (0 to t) in Beagle dog at 1 mg/kg, iv measured upto 24 hrs by LC-MS/MS analysis; type: ADME, organism-based, Canis lupus familiaris; design: dose 1 mg/kg, time < 24 hrs, route iv; settings: in vivo
[2] = Metabolic stability in rat plasma assessed as parent compound remaining measured after 120 mins by LC-MS/MS analysis; type: ADME, cell-free; settings: read-out: Stability
[3] = Oral bioavailability in Beagle dog at 10 mg/kg measured upto 24 hrs by LC-MS/MS analysis; type: ADME, organism-based, Canis lupus familiaris; settings: in vivo
[4] = Volume of distribution at steady state in ICR mouse at 2 mg/kg, iv measured upto 24 hrs by LC-MS/MS analysis; type: ADME, organism-based; settings: in vivo, read-out: Vdss
[5] = Metabolic stability in dog liver microsome assessed as half life measured upto 45 mins in presence of NADPH by LC-MS/MS analysis; type: ADME, Canis lupus familiaris; settings: liver microsomes
[6] = Oral bioavailability in non human primate at 2 mg/kg measured upto 24 hrs by LC-MS/MS analysis; type: ADME, organism-based; settings: primates, in vivo
[7] = Clearance in ICR mouse at 2 mg/kg, iv measured upto 24 hrs by LC-MS/MS analysis; type: ADME, organism-based; settings: in vivo
[8] = Volume of distribution at steady state in non human primate at 1 mg/kg, iv measured upto 24 hrs by LC-MS/MS analysis; type: ADME, organism-based; settings: primates, in vivo, read-out: Vdss
[9] = AUC (0 to t) in non human primate at 2 mg/kg, po measured upto 24 hrs by LC-MS/MS analysis; type: ADME, organism-based; design: time < 24 hrs, dose 2 mg/kg, route po; settings: primates, in vivo
VCaP [10] = assay: Antitumor activity against human VCaP cells xenografted in CB17-SCID mouse assessed as tumor growth inhibition at 10 mg/kg, po administered for 21 days; type: functional; settings: 504 h, time 21 day, read-out: TGI
[11] = Oral bioavailability in ICR mouse at 5 mg/kg measured upto 24 hrs by LC-MS/MS analysis; type: ADME, organism-based; settings: in vivo
[12] = Tmax in non human primate at 2 mg/kg, po measured upto 24 hrs by LC-MS/MS analysis; type: ADME, organism-based; settings: primates, in vivo
VCaP [13] = assay: Antitumor activity against human VCaP cells xenografted in CB17-SCID mouse assessed as tumor growth inhibition at 40 mg/kg, po administered for 21 days; settings: 504 h, read-out: TGI
[14] = Half life in non human primate assessed as half life at 1 mg/kg, iv measured upto 24 hrs by LC-MS/MS analysis; type: ADME, organism-based; settings: primates, in vivo
[15] = Metabolic stability in non human primate plasma assessed as half life measured after 2 hrs by LC-MS/MS analysis; type: ADME, cell-free; settings: primates
[16] = Volume of distribution at steady state in Sprague-Dawley rat at 2 mg/kg, iv measured upto 24 hrs by LC-MS/MS analysis; settings: in vivo
[17] = Metabolic stability in dog plasma assessed as parent compound remaining measured after 120 mins by LC-MS/MS analysis; type: ADME, cell-free, Canis lupus familiaris; settings: read-out: Stability
[18] = AUC (0 to t) in ICR mouse at 2 mg/kg, iv measured upto 24 hrs by LC-MS/MS analysis; type: ADME, organism-based; design: dose 2 mg/kg, time < 24 hrs, route iv; settings: in vivo
[19] = Half life in Beagle dog at 10 mg/kg, po measured upto 24 hrs by LC-MS/MS analysis; type: ADME, organism-based, Canis lupus familiaris; settings: in vivo
[20] = Metabolic stability in dog hepatocyte assessed as half life measured upto 120 mins by LC-MS/MS analysis; type: ADME, cell-based, Canis lupus familiaris; settings: hepatocytes
[21] = Metabolic stability in rat liver microsome assessed as half life measured upto 45 mins in presence of NADPH by LC-MS/MS analysis; type: ADME; settings: liver microsomes
[22] = AUC (0 to t) in non human primate at 1 mg/kg, iv measured upto 24 hrs by LC-MS/MS analysis; type: ADME, organism-based; design: dose 1 mg/kg, time < 24 hrs, route iv; settings: primates, in vivo
[23] = Metabolic stability in non human primate liver microsome assessed as parent compound remaining measured at 120 mins in presence of NADPH by LC-MS/MS analysis; type: ADME; settings: primates, liver microsomes, read-out: Stability
[24] = Volume of distribution at steady state in Beagle dog at 1 mg/kg, iv measured upto 24 hrs by LC-MS/MS analysis; type: ADME, organism-based, Canis lupus familiaris; settings: in vivo, read-out: Vdss
[25] = Tmax in Sprague-Dawley rat at 5 mg/kg, po measured upto 24 hrs by LC-MS/MS analysis; type: ADME, organism-based; settings: in vivo
[26] = molecular target: Protein cereblon/Androgen receptor (Homo sapiens, UniProt P10275+Q96SW2); assay: PROTAC activity at AR/CRBN in AR-positive human VCaP cells assessed as induction of androgen receptor degradation measured at 24 hrs; type: cell-based; settings: read-out: DC50
Protein cereblon/Androgen receptor (Homo sapiens, UniProt P10275+Q96SW2), sequence (P10275 whole entry): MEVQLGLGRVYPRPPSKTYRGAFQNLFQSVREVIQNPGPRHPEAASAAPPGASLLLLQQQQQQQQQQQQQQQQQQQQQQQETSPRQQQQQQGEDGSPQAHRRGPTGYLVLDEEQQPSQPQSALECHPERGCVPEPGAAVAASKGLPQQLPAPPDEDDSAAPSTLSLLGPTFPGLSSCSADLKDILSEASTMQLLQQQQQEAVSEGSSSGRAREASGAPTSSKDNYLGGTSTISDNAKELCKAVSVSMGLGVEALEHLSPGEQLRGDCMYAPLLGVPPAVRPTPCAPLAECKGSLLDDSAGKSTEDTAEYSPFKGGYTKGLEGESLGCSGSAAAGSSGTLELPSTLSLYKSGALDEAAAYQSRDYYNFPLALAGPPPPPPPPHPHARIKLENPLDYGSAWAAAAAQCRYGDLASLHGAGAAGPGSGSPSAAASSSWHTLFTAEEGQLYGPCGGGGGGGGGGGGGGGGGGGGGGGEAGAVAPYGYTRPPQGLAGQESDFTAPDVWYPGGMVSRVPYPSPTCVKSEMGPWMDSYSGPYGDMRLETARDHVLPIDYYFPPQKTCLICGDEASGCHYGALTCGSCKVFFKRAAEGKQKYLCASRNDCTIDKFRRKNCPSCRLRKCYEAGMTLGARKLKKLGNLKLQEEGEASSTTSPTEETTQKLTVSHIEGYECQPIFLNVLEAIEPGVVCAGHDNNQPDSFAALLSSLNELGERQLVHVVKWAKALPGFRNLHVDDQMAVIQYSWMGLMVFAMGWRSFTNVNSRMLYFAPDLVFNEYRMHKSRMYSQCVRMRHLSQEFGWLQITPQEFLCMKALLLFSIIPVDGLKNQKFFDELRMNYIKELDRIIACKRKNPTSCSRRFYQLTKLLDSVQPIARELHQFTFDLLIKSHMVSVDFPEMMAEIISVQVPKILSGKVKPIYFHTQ
Protein cereblon/Androgen receptor (Homo sapiens, UniProt P10275+Q96SW2), sequence (Q96SW2 whole entry): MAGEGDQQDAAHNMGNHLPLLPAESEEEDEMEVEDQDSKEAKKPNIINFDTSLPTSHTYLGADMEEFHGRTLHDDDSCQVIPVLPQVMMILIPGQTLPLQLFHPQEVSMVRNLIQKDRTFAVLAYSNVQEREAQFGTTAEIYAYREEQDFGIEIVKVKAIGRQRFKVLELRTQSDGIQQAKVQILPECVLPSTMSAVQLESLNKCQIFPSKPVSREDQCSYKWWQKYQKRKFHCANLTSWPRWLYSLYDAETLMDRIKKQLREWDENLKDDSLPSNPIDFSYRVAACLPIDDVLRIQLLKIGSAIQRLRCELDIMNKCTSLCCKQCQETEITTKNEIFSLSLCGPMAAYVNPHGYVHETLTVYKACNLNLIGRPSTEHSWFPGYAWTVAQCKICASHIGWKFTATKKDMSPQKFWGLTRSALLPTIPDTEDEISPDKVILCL

[27] = Half life in non human primate at 2 mg/kg, po measured upto 24 hrs by LC-MS/MS analysis; type: ADME, organism-based; settings: primates, in vivo
[28] = Metabolic stability in human liver microsome assessed as half life measured upto 45 mins in presence of NADPH by LC-MS/MS analysis; type: ADME; settings: liver microsomes
[29] = Metabolic stability in human liver microsome assessed as parent compound remaining measured at 120 mins in presence of NADPH by LC-MS/MS analysis; type: ADME; settings: liver microsomes, read-out: Stability
[30] = Tmax in Beagle dog at 10 mg/kg, po measured upto 24 hrs by LC-MS/MS analysis; type: ADME, organism-based, Canis lupus familiaris; settings: in vivo
[31] = Half life in Sprague-Dawley rat at 2 mg/kg, iv measured upto 24 hrs by LC-MS/MS analysis; settings: in vivo
[32] = Metabolic stability in mouse plasma assessed as half life measured after 2 hrs by LC-MS/MS analysis; type: ADME, cell-free
[33] = Metabolic stability in rat plasma assessed as half life measured after 2 hrs by LC-MS/MS analysis; type: ADME, cell-free
[34] = Metabolic stability in human plasma assessed as half life measured after 2 hrs by LC-MS/MS analysis; type: ADME, cell-free
[35] = Metabolic stability in mouse liver microsome assessed as half life measured upto 45 mins in presence of NADPH by LC-MS/MS analysis; type: ADME; settings: liver microsomes
VCaP [36] = assay: Growth inhibition in human VCaP cells
[37] = Half life in ICR mouse at 5 mg/kg, po measured upto 24 hrs by LC-MS/MS analysis; type: ADME, organism-based; settings: in vivo
[38] = Metabolic stability in mouse liver microsome assessed as parent compound remaining measured at 120 mins in presence of NADPH by LC-MS/MS analysis; type: ADME; settings: liver microsomes, read-out: Stability
in vivo [39] = settings: Sprague-Dawley, rat, po, 5 mg/kg
[40] = AUC (0 to t) in Beagle dog at 10 mg/kg, po measured upto 24 hrs by LC-MS/MS analysis; type: ADME, organism-based, Canis lupus familiaris; design: time < 24 hrs, dose 10 mg/kg, route po; settings: in vivo
[41] = Metabolic stability in non human primate liver microsome assessed as half life measured upto 45 mins in presence of NADPH by LC-MS/MS analysis; type: ADME; settings: primates, liver microsomes
[42] = molecular target: Protein cereblon/Androgen receptor (Homo sapiens, UniProt P10275+Q96SW2, L702H/T878A); settings: mda-pca-2b
Protein cereblon/Androgen receptor (Homo sapiens, UniProt P10275+Q96SW2, L702H/T878A), sequence (P10275 whole entry L702H/T878A, stated change not applied): as the sequence (P10275 whole entry) above, with L702H, T878A counted along it
Protein cereblon/Androgen receptor (Homo sapiens, UniProt P10275+Q96SW2, L702H/T878A), sequence (Q96SW2 whole entry, stated change not applied): as the sequence (Q96SW2 whole entry) above

[43] = Metabolic stability in rat hepatocyte assessed as half life measured upto 120 mins by LC-MS/MS analysis; type: ADME, cell-based; settings: hepatocytes
in vivo [44] = settings: Sprague-Dawley, rat, po, 5 mg/kg; remark: listed apart in the source
[45] = Cmax in Beagle dog at 10 mg/kg, po measured upto 24 hrs by LC-MS/MS analysis; type: ADME, organism-based, Canis lupus familiaris; design: time < 24 hrs, dose 10 mg/kg, route po; settings: in vivo
[46] = Half life in ICR mouse at 2 mg/kg, iv measured upto 24 hrs by LC-MS/MS analysis; type: ADME, organism-based; settings: in vivo

C[C@H]1CC2(CCN(c3ccc(C(=O)N4CCC(CN5Cc6cc7c(cc6C5)C(=O)N(C5CCC(=O)NC5=O)C7=O)CC4)cc3)CC2)CN1c1ccc(C#N)c(Cl)c1 (stereo partly specified)
AUC(0-t) at 24 h [1]: 4860 ng·h/mL
remaining at 2 h [2]: 52%
bioavailability [3]: 31%
Vd [4]: 0.23 L/kg
half-life at […] [5]: > 1 h
bioavailability [6]: 99%
clearance [7]: 0.667 mL/min/kg
Vd [8]: 2.07 L/kg
AUC(0-t) at 24 h [9]: 10300 ng·h/mL
inhibition in vivo at 10 mg/kg (VCaP [10]): 50%
bioavailability [11]: 67%
Tmax [12]: 3.33 h
inhibition in vivo at 40 mg/kg (VCaP [13]): 85%
half-life [14]: 10 h
half-life [15]: > 2 h
Vd at 24 h [16]: 1.7 L/kg
remaining at 2 h [17]: 71%
AUC(0-t) at 24 h [18]: 50500 ng·h/mL
half-life [19]: 27.4 h
half-life [20]: > 2 h
half-life at […] [21]: > 1 h
AUC(0-t) at 24 h [22]: 5170 ng·h/mL
remaining at 2 h [23]: 82%
Vd [24]: 1.74 L/kg
Tmax [25]: 4 h
DC50 [26]: 0.1 nM
half-life [27]: 9.62 h
half-life at […] [28]: > 1 h
remaining at 2 h [29]: 84%
Tmax [30]: 3 h
half-life at 24 h [31]: 4.5 h
half-life [32]: > 2 h
half-life [33]: > 2 h
half-life [34]: > 2 h
half-life at […] [35]: > 1 h
IC50 (VCaP [36]): 11.5 nM
half-life [37]: 4.4 h
remaining at 2 h [38]: 82%
AUC(0-t) at 24 h (in vivo [39]): 6020 ng·h/mL
AUC(0-t) at 24 h [40]: 15200 ng·h/mL
half-life at […] [41]: > 1 h
DC50 [42]: 8 nM
half-life [43]: > 2 h
bioavailability at 24 h (in vivo [44]): 44%
Cmax [45]: 1030 ng/mL
half-life [46]: 4.3 h
